Test results as given in US20170355959A1, “METHODS FOR MOBILISING POPULATIONS OF STEM CELLS” (Imperial Innovations Limited, priority 2014, published 2017).

Columns and labels:
[1] = system: HSPCs; assay: Mobilization of HSPCs into peripheral blood (CFU-HPC assay); format: in vivo, mice
Protocol: (§1) Mice were administered the β-adrenergic agonists isoproterenol (10 mg/kg i.p.), clenbuterol (5 mg/kg i.p.) and BRL 37344 (10 mg/kg i.p.), the cannabinoid receptor agonists ACEA (10 mg/kg i.p.) and GP1a (5 mg/kg i.p.), or vehicle either on 4 consecutive days or 2 hours prior to the cull. 1 hour after the last injection, mice were administered the CXCR4 antagonist AMD3100 (5 mg/kg i.p.) or vehicle. 1 hour later their blood was collected via cardiac puncture for enumeration of circulating CFU-HPCs and CFU-Fs. Mice were administered murine G-CSF (100 μg/kg i.p.) or vehicle on 4 consecutive days. On day 5, blood was collected via cardiac puncture for enumeration of circulating HSPCs.
Harvested peripheral blood or perfusate was red blood cell-lysed and 1×10^5 cells were added to tissue culture-treated petri dishes containing 1 ml of Methocult™ (M3434; StemCell Technologies) to select for CFU-HPCs. Cultures were incubated at 37° C. and quantified on day 12. Similarly, 1×10^6 bone marrow cells harvested by bone marrow flush of the hind limb femur were plated for CFU-HPCs.

[2] = system: free fatty acids; assay: Free fatty acid assay in blood plasma; format: in vivo, mice; details: treatment over 4 days
Protocol: as §1
Free fatty acid content in blood plasma was quantified using a serum/plasma fatty acid detection Kit (Zen Bio) and the assay was performed according to the manufacturers' instructions. Data are expressed as μM concentration of free fatty acids.

[3] = system: endocannabinoids and N-acyl ethanolamides; assay: Lipid mediator quantification in bone marrow by UPLC/ESI-MS/MS; format: in vivo, mice
Protocol: Plasma and bone marrow flush (pool of 3 mice, n=1) were processed in order for the extraction of endocannabinoids and congeners (Astarita and Piomelli, 2009; Kingsley and Marnett, 2009). Samples were analysed on an electrospray (ESI) tandem quadrupole Xevo TQ-S mass spectrometer (MS/MS; Waters) coupled to an Acquity Ultrahigh Pressure Chromatography (UPLC) system, and the concentration of analytes was calculated (TargetLynx). Further details concerning extraction and analysis can be found in the Supplemental Experimental Procedures.
Bone marrow flushed from the femurs of 3 mice were pooled (6 ml in total) per treatment to give an n=1 sample. This volume was required to achieve sufficient concentrations of endocannabinoids and N-acyl ethanolamides for detection by UPLC/ESI-MS/MS. Extraction of lipids was carried out by addition of chloroform:methanol (2:1, v/v) (Astarita and Piomelli, 2009; Kingsley and Mamett, 2009). Specifically, ice cold chloroform:methanol was added to each bone marrow supernatant (ml per pooled bone marrow sample), followed by the internal standards AEA-d8 (20 ng) and 2AG-d8 (40 ng). The resulting suspensions were kept on ice for 30 min with occasional vortexing and centrifuged at 5000 rpm for 8 min, to separate the organic and aqueous phases. The organic layer (bottom) from each sample was then removed into a clean vial. The supernatant was evaporated under a fine stream of nitrogen. Once dried the extract was reconstituted in 1 ml of chloroform and semi-purified by SPE (Guo et al, 2010). Briefly, the silica cartridge was equilibrated with 5×1 ml cholorform, the extract was applied, the cartridge was washed with 2×1 ml chloroform and the endocannabinoids eluted with 5×1 ml chloroform:methanol (2:1 v/v). The remaining residue, reconstituted in 100 μL ethanol was stored at −20° C., for no more than 1 week, awaiting UPLC/ESI-MS/MS analysis.
All analysis was performed on an electrospray (ESI) tandem quadrupole Xevo TQ-S mass spectrometer (Waters) coupled to an Acquity Ultrahigh Pressure Chromatography (UPLC) system. The system was controlled by MassLynx v4.1 Software. TargetLynx was used to construct calibration lines and calculate the concentration of analytes of interest. Optimised ESI-MS/MS conditions were achieved through the use of Intellistart within MassLynx software. Individual standards (100 pg/μl) were introduced into the spectrometer by direct infusion via the Xevo TQ-S integrated syringe pump (flow rate 10 μl/min) combined with UPLC solvent flow (rate 0.2 mL/min). All analytes were monitored on the positive ionisation mode. Capillary voltage was set at 2000V, source temperature at 150° C., desolvation temperature at 400° C. and the cone voltage at 20 V. […]

[4] = system: CFU-Fs (MSCs); assay: In situ perfusion of mouse hind limb, CFU-Fs in perfusate; format: in vivo, mice; details: four day pretreatment, b3 adrenergic agonist in combination with FAAH inhibitor
Protocol: Mice were administered BRL 37344 (10 mg/kg i.p.) or vehicle on 4 consecutive days. 1 hour after the last injection, the mice were anaesthetized. The femoral vein and artery were exposed and cannulated in situ immediately after the hind limb was isolated by occlusion of the surrounding arteries as previously described (Pitchford et al, 2009; Pitchford et al, 2010). Perfusion buffer was infused via the arterial cannula and removed from the venous cannula using a Minipuls Peristaltic Pump (Anachem). The hind limb was initially infused with AMD3100 (0.1 mM) or vehicle for 10 minutes using an infusion/withdrawal pump (Harvard Instruments) and was further perfused for 50 minutes with perfusion buffer (Pitchford et al, 2010). The perfusate was collected over 60 minutes and then centrifuged and resuspended in DMEM (Gibco) +20% fetal bovine serum for enumeration of CFU-HPCs and CFU-Fs.
Harvested peripheral blood or perfusate was red blood cell-lysed and 1×10^6 cells were added to tissue culture-treated 6-well plates containing 3 ml of Mesencult™ (05502; StemCell Technologies) to select for CFU-Fs. Similarly, 1×10^6 bone marrow cells harvested by bone marrow flush of the hind limb femur were plated for CFU-Fs. Cultures were incubated at 37° C. and media was changed on day 7. Bone marrow-derived CFU-Fs were enumerated on day 13 and blood- and perfusate-derived CFU-Fs were enumerated on day 21. Blood derived-CFU-Fs were further expanded and assessed for mesenchymal lineage markers by flow cytometry and following CD45 depletion (flow cytometry sorting of CD45 negative for mesenchymal trilineage differentiation (Supplemental Experimental Procedures).

[5] = system: HSPCs; assay: Mobilization of HSPCs into peripheral blood (CFU-HPC assay); format: in vivo; details: mice pre-treated with 0-30 mg/kg BRL37344 for 4 days
[6] = 4 days, in combination with FAAH inhibition, versus FAAH inhibition only

Compound: C[C@H](Cc1ccc(OCC(=O)O)cc1)NC[C@H](O)c1cccc(Cl)c1 [BRL37344]
- pre-treatment time needed for HSPC mobilization ([1]; 2 h versus 4 d pre-treatment, then AMD3100): required the pre-treatment of mice over 4 days to see this effect
- circulating HSPC numbers ([1]; pre-treated once daily for 4 days, then AMD3100, blood 1 hour later): significantly boosted circulating numbers of HSPCs and CFU-Fs as compared to that observed with isoproterenol and AMD3100 in combination
- FFA levels in plasma [2]: an increase
- bone marrow levels of 2-AG [3, 6]: significantly increased
- bone marrow levels of DHEA [3, 6]: significantly increased
- bone marrow levels of PEA [3, 6]: significantly increased
- bone marrow levels of other N-acyl ethanolamides, including AEA ([3]; following administration in vivo): remained unchanged
- MSC egress from the bone marrow in response to infusion of the CXCR4 antagonist [4]: significantly enhanced both HPC and MSC egress from the bone marrow
- dose dependence of HSPC mobilization in response to the CXCR4 antagonist [5]: dose response relationship
